Results: patent publication US10106515B2, “1-(cyclopent-2-en-1-yl)-3-(2-hydroxy-3-(arylsulfonyl)phenyl)urea derivatives as CXCR2 inhibitors” (GLAXOSMITHKLINE INTELLECTUAL PROPERTY DEVELOPMENT LIMITED, priority 2014, dated 2018)
Where a name gives a salt, the structure may show the parent alone.

What follows are compounds tested against T1, recombinant human CXCR2 (Homo sapiens, UniProt P25025) (assay: CXCR2 Tango assay). Conditions: mean pIC50 of multiple test results; stimulated with 80 nM hCXCL1; reporter gene blue/green emission ratio; read-out: pIC50 (CXCR2 Tango assay) (converted).
T1 construct: TEV protease site; Gal4-VP16 transcription factor
T1 sequence (P25025 1-360): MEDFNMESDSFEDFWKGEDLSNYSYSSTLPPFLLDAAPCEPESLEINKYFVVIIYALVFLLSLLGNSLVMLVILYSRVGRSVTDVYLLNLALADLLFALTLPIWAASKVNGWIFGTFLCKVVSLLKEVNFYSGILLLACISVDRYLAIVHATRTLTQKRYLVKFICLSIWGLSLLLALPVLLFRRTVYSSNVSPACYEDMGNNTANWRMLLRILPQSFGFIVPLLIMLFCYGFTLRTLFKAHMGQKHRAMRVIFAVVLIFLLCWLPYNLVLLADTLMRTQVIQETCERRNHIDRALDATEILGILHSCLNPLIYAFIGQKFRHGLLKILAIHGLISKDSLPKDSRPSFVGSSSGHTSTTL
Format: cell-based
Source text: The assay measures ligand-induced activation of the receptor CXCR2 in a stable cell line containing the recombinant human CXCR2 linked to a TEV protease site and a Gal4-VP16 transcription factor (Invitrogen). Ligand binding to the receptor results in the recruitment of arrestin proteins (tagged with protease) to the receptor and triggers the release of a tethered transcription factor. The transcription factor enters the nucleus and activates the transcription of the reporter gene. The ability of a compound to inhibit CXCR2 activation is indirectly assessed by measuring the reporter gene activity.
A vial of cryopreserved cells was removed from liquid nitrogen and rapidly thawed in a water bath at 37° C. with gentle agitation. The contents of the vial were transferred drop-wise into Thawing Medium in a sterile 15 ml conical tube and then centrifuged at 1000 rpm for 4-5 min. Then the cell pellets were resuspended in Assay Medium at a density of ˜200,000 cells/ml. All test compounds were dissolved in DMSO at a concentration of 10 mM and were prepared in 100% DMSO to provide 10 point dose response curves. A reference CXCR2 antagonist was added to wells in row 2, columns 1-5 & 7-11. Exemplified compounds 1-4, 7, 8-10, 13-22, 24-26, 28-30, 32, 33, 36, 37, 40, 42-44. 95-110, 115-118, 120, 121, 125, 126, 129-134, 137, 138, 140, 142, 147-149, 153-157, 159-162, 163-166, 168, 170, 172, 174-180 and 202 were tested using the CXCR2 antagonist sodium 3-chloro-6-(3-(2,3-dichlorophenyl)ureido)-2-sulfamoylphenolate as reference compound (Reference Compound 1) (published International patent application WO2002/079122). […] Test compounds were added to wells in row 2, columns 13-17 & 19-23 and rows 3-15, columns 1-5 & 7-11/13-17 & 19-23 (columns 6 and 18 as positive controls and un-stimulated controls respectively; columns 12 and 24 as cell-free control). Compounds in solution were added to the assay plate (Greiner 781090) using an Echo (Labcyte) concentration-response program (50 nl/well). The cell-free, un-stimulated and positive controls were loaded with 50 nl/well pure DMSO to ensure that the DMSO concentration was constant across the plate for all assays. Using Multi-drop Combi (Thermo) with standard cassette, 50 μl of Assay Medium was added to each well in the cell-free controls (columns 12 and 24); 50 μl of the cell suspension without hCXCL1 (a CXCR2 ligand) was added to each well in column 18 of the plate (˜10,000 cells per well); and 50 μl of the cell suspension with 80 nM hCXCL1 was added to the rest of wells of the plate (˜10,000 cells per well). The cells were incubated overnight at 37° C./5% CO2. 10 μl of 6× substrate mixture (LiveBLAzer™-FRET B/G substrate (CCF4-AM) Cat # K1096 from Invitrogen, Inc.) was added to each well using Multi-drop Combi (Thermo) with small-tube cassette and the plates incubated at room temperature for 2 h in the dark. The plate was finally read on EnVision using one excitation channel (409 nm) and two emission channels (460 nm and 530 nm).
The blue/green emission ratio (460 nm/530 nm) was calculated for each well, by dividing the background-subtracted Blue emission values by the background-subtracted Green emission values. The dose response curve was based on sigmoidal dose-response model. All ratio data was normalized based upon the maximum emission ratio of positive control (hCXCL1) and minimum emission ratio of negative control (DMSO) on each plate. The intrinsic activity (IA) of each compound would be the normalized percentage of its maximum response after curve fitting.
All exemplified compounds (except for Compounds 203 and 204) were tested in the CXCR2 Tango assay or a similar assay described above. The data mentioned below represents a mean pIC 50 value of multiple test results. It is understood that the data illustrated below may have reasonable variation depending on the specific conditions and procedures used by the person conducting the testing.

Row | IC50 | Compound
1 | ≤ 1 nM | CC1=CCC[C@H]1NC(=O)Nc1ccc(Cl)c(S(=O)(=O)C(C)(C)C2COC2)c1O [Compound 61, (R)-1-(4-chloro-2-hydroxy-3-((2-(oxetan-3-yl)propan-2-yl)sulfonyl)phenyl)-3-(2-methylcyclopent-2-en-1-yl)urea]
2 | ≤ 1 nM | CC1=CCC[C@H]1NC(=O)Nc1ccc(Cl)c(S(=O)(=O)C(F)(F)c2ccccn2)c1O [Compound 63, (R)-1-(4-chloro-3-((difluoro(pyridin-2-yl)methyl)sulfonyl)-2-hydroxyphenyl)-3-(2-methylcyclopent-2-en-1-yl)urea, trifluoroacetic acid salt]
3 | ≤ 10 nM | CC1=CCC[C@H]1NC(=O)Nc1ccc(Cl)c(S(=O)(=O)C2(C)CC3(COC3)C2)c1O [Compound 65, (R)-1-(4-chloro-2-hydroxy-3-((6-methyl-2-oxaspiro[3.3]heptan-6-yl)sulfonyl)phenyl)-3-(2-methylcyclopent-2-en-1-yl)urea]
4 | ≤ 10 nM | CC1=CCC[C@H]1NC(=O)Nc1ccc(Cl)c(S(=O)(=O)C2(C)CCN(C3CCC3)CC2)c1O [Compound 67, (R)-1-(4-chloro-3-((1-cyclobutyl-4-methylpiperidin-4-yl)sulfonyl)-2-hydroxyphenyl)-3-(2-methylcyclopent-2-en-1-yl)urea, trifluoroacetic acid salt]
5 | ≤ 1 nM | CC1=CCC[C@H]1NC(=O)Nc1ccc(Cl)c(S(=O)(=O)C2(F)CCN(C3CCC3)CC2)c1O [Compound 73, (R)-1-(4-chloro-3-((1-cyclobutyl-4-fluoropiperidin-4-yl)sulfonyl)-2-hydroxyphenyl)-3-(2-methylcyclopent-2-en-1-yl)urea, trifluoroacetic acid salt]
6 | ≤ 1 nM | CC1=CCC[C@H]1NC(=O)Nc1ccc(Cl)c(S(=O)(=O)C2(F)CCOC2)c1O (stereo partly drawn) [Compound 74, 1-(4-chloro-3-((3-fluorotetrahydro-furan-3-yl)sulfonyl)-2-hydroxyphenyl)-3-((R)-2-methylcyclopent-2-en-1-yl)urea]
7 | ≤ 1 nM | CC1=CCC[C@H]1NC(=O)Nc1ccc(Cl)c(S(=O)(=O)C2CC3(COC3)C2)c1O [Compound 77, (R)-1-(3-(2-oxaspiro[3.3]heptan-6-ylsulfonyl)-4-chloro-2-hydroxyphenyl)-3-(2-methylcyclopent-2-en-1-yl)urea]
8 | ≤ 10 nM | CC1=CCC[C@H]1NC(=O)Nc1ccc(Cl)c(S(=O)(=O)C2CCN(CC(F)F)CC2)c1O [Compound 80, (R)-1-(4-chloro-3-((1-(2,2-difluoroethyl)piper-idin-4-yl)sulfonyl)-2-hydroxyphenyl)-3-(2-methylcyclopent-2-en-1-yl)urea trifluoroacetic acid salt]
9 | ≤ 10 nM | CC1=CCC[C@H]1NC(=O)Nc1ccc(Cl)c(S(=O)(=O)N2CC(F)C2)c1O [Compound 86, (R)-1-(4-chloro-3-((3-fluoroazetidin-1-yl)sulfonyl)-2-hydroxyphenyl)-3-(2-methylcyclopent-2-en-1-yl)urea trifluoroacetic acid salt]
10 | ≤ 10 nM | CC1=CCC[C@H]1NC(=O)Nc1ccc(Cl)c(S(=O)(=O)N2CC[C@@H](F)C2)c1O [Compound 87, 1-(4-chloro-3-(((R)-3-fluoropyrrolidin-1-yl)sulfonyl)-2-hydroxyphenyl)-3-((R)-2-methylcyclopent-2-en-1-yl)urea, trifluoroacetic acid salt]
11 | ≤ 1 nM | CC1=CCC[C@H]1NC(=O)Nc1ccc(Cl)c(S(=O)(=O)N2CCC(F)(F)C2)c1O [Compound 88, (R)-1-(4-chloro-3-((3,3-difluoropyrrolidin-1-yl)sulfonyl)-2-hydroxyphenyl)-3-(2-methylcyclopent-2-en-1-yl)urea]
12 | ≤ 1 nM | CC1=CCC[C@H]1NC(=O)Nc1ccc(Cl)c(S(=O)(=O)N2CCC(O)CC2)c1O [Compound 89, (R)-1-(4-chloro-2-hydroxy-3-((4-hydroxypiperidin-1-yl)sulfonyl)phenyl)-3-(2-methylcyclopent-2-en-1-yl)urea]
13 | ≤ 1 nM | CC1=CCC[C@H]1NC(=O)Nc1ccc(Cl)c(S(=O)(=O)N2CCCCC2)c1O [Compound 91, (R)-1-(4-chloro-2-hydroxy-3-(piperidin-1-ylsulfonyl)phenyl)-3-(2-methylcyclopent-2-en-1-yl)urea trifluoroacetic acid salt]
14 | ≤ 1 nM | CC1=CCCC1NC(=O)Nc1ccc(Cl)c(S(=O)(=O)[C@H]2C[C@@H](O)C2)c1O (stereo partly drawn) [Compound 95, 1-(4-chloro-2-hydroxy-3-((cis-3-hydroxycyclobutyl)sulfonyl)phenyl)-3-(2-methylcyclopent-2-en-1-yl)urea]
15 | ≤ 10 nM | CC1=CCCC1NC(=O)Nc1ccc(Cl)c(S(=O)(=O)[C@H]2C[C@H](N3CCCC3)C2)c1O (stereo partly drawn) [Compound 96, 1-(4-chloro-2-hydroxy-3-(((1r,3r)-3-(pyrrolidin-1-yl)cyclobutyl)sul-fonyl)phenyl)-3-(2-methylcyclopent-2-en-1-yl)urea, trifluoroacetic acid salt]
16 | ≤ 10 nM | CC1=CCCC1NC(=O)Nc1ccc(Cl)c(S(=O)(=O)[C@H]2CC[C@H](N3CCC3)CC2)c1O (stereo partly drawn) [Compound 97, 1-(3-(((1r,4r)-4-(azetidin-1-yl)cyclohexyl)sulfonyl)-4-chloro-2-hydroxyphenyl)-3-(2-methylcyclopent-2-en-1-yl)urea trifluoroacetic acid salt]
17 | ≤ 1 nM | CC1=CCCC1NC(=O)Nc1ccc(Cl)c(S(=O)(=O)[C@H]2CC[C@H](N3CCCC3)CC2)c1O (stereo partly drawn) [Compound 98, 1-(4-chloro-2-hydroxy-3-(((1R,4R)-4-(pyrrolidin-1-yl)cyclohexyl)sulfonyl)phenyl)-3-(2-methylcyclopent-2-en-1-yl)urea, trifluoroacetic acid salt]
18 | ≤ 10 nM | CC1=CCCC1NC(=O)Nc1ccc(Cl)c(S(=O)(=O)[C@H]2CCOC2)c1O (stereo partly drawn) [Compound 99, 1-(4-chloro-2-hydroxy-3-(((S)-tetrahydrofuran-3-yl)sulfonyl)phenyl)-3-(2-methylcyclopent-2-en-1-yl)urea]
19 | ≤ 10 nM | CC1=CCCC1NC(=O)Nc1ccc(Cl)c(S(=O)(=O)C(C)(C)C)c1O (stereo not drawn) [Compound 100, 1-(3-(tert-butylsulfonyl)-4-chloro-2-hydroxyphenyl)-3-(2-methylcyclopent-2-en-1-yl)urea]

Row | Compound | IC50
20 | [2H]C1(S(=O)(=O)c2c(Cl)ccc(NC(=O)N[C@@H]3CCC=C3C)c2O)CCN(C2CCC2)CC1 [Compound 81, (R)-1-(4-chloro-3-((1-cyclobutylpiperidin-4-yl)sulfonyl)-2-hydroxyphenyl)-3-(2-methylcyclopent-2-en-1-yl)urea-d1, trifluoroacetic acid salt] | ≤ 1 nM

Same assay, conditions: pIC50 (CXCR2 Tango assay), mean pIC50 of multiple test results; stimulated with 80 nM hCXCL1; reporter gene blue/green emission ratio

Row | Compound | IC50
21 | CC1=CCC[C@H]1NC(=O)Nc1ccc(Cl)c(S(=O)(=O)C2CCN(C3CCC3)CC2)c1O [Compound 83, (R)-1-(4-chloro-3-((1-cyclobutylpiperidin-4-yl)sulfonyl)-2-hydroxyphenyl)-3-(2-methylcyclopent-2-en-1-yl)urea trifluoroacetic acid salt] | ≤ 1 nM
